# Measured values from patent US8168667B2 (Galapagos NV, priority 2006, dated 2012).
# Like-named read-outs stand apart in the source and are kept apart here.
# What was measured:
# [1] = tested on: castrated immature young rats; assay: Adapted model of Hershberger's test (levator ani and ventral prostate weight); type: in vivo, Sprague Dawley rats; settings: Rattus norvegicus, po, 96 h
# Description: The selective modulating activity of the androgen receptor was tested in a model of castrated immature young rats. This model, which is widely recognised for evaluating the anabolic effects of androgen compounds on the muscles and on the genitalia, has been described by Hershberger et al. 1953 Proc. Soc. Expt. Biol. Med. 83:175.
# The method is based on the measurement of the well-known effects of androgens on the growth of the muscles and the accessory male sex organs in animals, and also in men. The consequences of castration appear in the form of a rapid involution and atrophy of the prostate and the seminal vesicles and of the anus-lifting muscle (levator ani). This effect may be completely compensated by an exogeneous administration of androgen, in particular of testosterone. The model is thus used to determine the capacity of the tested molecules to maintain the weight of the accessory sex and muscle organs in immature castrated rats, and therefore their androgenic efficacy.
# Immature young Sprague Dawley rats (4 to 5 weeks old) weighing approximately 140-160 g (Charles River, Les Oncins, FRANCE) were distributed randomly in various groups and were kept in an environment at 22±2° C. with an alternating day/night cycle of 12 hours and ad libitum access to food and drink.
# On day 0, that is, seven days before commencement of the first treatment, the rats were weighed individually then anaesthetised with an intraperitoneal dose of Ketamine/xylazine (85/15 mg/kg, approximately 2 ml/kg). Each animal was then placed on a sterile field and the abdomen and the scrotum were disinfected with Betadine and 70% alcohol. In the case of the orchidectomised control animals (ORX), the testicles were removed via an incision in the middle of the scrotum. A sterile suture was then made to ligature the supra-testicular portion of the tissue prior to surgical section of each testicle. The groups of animals to be treated by the tested compounds were operated on in an identical manner. In the case of the intact control animals (SHAM), the testicles were similarly extracted and reintroduced delicately to their original location. The site of surgical intervention was then sutured using sterile suture thread, and the site was disinfected again by application of Betadine. Each animal was then kept under a sterile pad until it awoke, before being returned to its cage. The animals were kept in an environment at 22±2° C. with an alternating day/night cycle of 12 hours and ad libitum access to food and drink. The animals were treated with the molecules to be tested from post-surgery day 7 and until day 10 preceding sacrifice (day 11).
# The rats were split into groups and treated daily from day 7 to day 10 under the conditions defined below: • 1. SHAM control group: Vehicle (0.5% aqueous methyl cellulose) administered per os. • 2. ORX control group: Vehicle (0.5% aqueous methyl cellulose) administered per os. • 3. Treated ORX group: The tested compounds were administered individually per os in suspension in the vehicle described above, in a dose of 30 mg/kg.
# After treatment for 4 successive days, the animals were decapitated using a guillotine. The levator ani and the ventral prostate were removed and weighed individually. For comparing inter-experimental data, the weight of each organ was standardised and expressed in milligrammes per 100 g of the weight of the animal (W). For each organ, the average of the standardised weights of the ORX control group was fixed by definition at 0% and the average of the standardised weights of the SHAM control group was fixed by definition at 100%. The efficacy of each product was expressed as a percentage and calculated using the following formula: (Wtreated−WORX)/(WSHAM−WORX)×100 A subsequent ANOVA test was used for statistical analysis to identify the differences between groups.
# [2] = molecular target: T1, human androgen receptor (hAR) (Homo sapiens, UniProt P10275); assay: Functional response test: hAR transactivation (luciferase reporter) in HALP2 cells; type: cell-based; settings: for EC50: agonism, HALP2 cells (HeLa, hAR + ARE-luciferase), 20 hours at 37° C.
# T1 sequence (P10275 1-920): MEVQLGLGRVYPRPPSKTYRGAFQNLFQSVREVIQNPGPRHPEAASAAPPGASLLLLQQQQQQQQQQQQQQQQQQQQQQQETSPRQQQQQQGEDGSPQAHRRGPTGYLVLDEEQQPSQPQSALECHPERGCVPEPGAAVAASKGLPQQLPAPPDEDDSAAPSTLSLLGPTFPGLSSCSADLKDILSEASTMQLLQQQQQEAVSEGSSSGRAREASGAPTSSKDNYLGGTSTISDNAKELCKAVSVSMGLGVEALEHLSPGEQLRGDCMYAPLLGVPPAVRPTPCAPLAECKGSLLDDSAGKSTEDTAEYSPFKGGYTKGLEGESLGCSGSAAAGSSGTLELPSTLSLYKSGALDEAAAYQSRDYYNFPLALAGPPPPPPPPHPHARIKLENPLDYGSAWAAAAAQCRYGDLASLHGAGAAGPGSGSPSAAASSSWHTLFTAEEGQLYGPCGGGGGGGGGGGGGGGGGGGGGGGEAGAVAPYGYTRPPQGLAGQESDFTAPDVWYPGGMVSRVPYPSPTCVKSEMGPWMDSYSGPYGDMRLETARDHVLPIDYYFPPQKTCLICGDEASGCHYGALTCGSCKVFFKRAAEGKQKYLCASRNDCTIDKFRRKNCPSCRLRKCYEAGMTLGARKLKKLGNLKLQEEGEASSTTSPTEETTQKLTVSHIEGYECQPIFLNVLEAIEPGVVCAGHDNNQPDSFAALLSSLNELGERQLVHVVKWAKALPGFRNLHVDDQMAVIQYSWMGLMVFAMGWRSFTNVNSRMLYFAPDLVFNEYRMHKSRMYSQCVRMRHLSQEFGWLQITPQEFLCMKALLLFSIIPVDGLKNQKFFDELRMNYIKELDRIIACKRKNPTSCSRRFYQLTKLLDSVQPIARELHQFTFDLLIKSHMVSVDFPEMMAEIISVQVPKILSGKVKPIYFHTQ
# How it was run: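 HALP2 cells are HeLa cells stably transfected with CMV-driven hAR and a probasin ARE-luciferase reporter. They were seeded 24 h ahead, then exposed to compounds for 20 hours at 37° C in phenol red-free DMEM with 5% desteroided serum. Luciferase luminescence was measured after lysis; for antagonist mode, compounds were tested against increasing DHT concentrations.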
# [3] = read-out: anabolic protection efficacy with regard to levator ani
# [4] = read-out: androgenic efficacy with regard to the prostate
# [5] = antagonism, concentration which increases the EC50 of the DHT by a factor of 2, Schild regression, HALP2 cells
Structure (SMILES),"inhibition in vivo at 30 mg/kg [1, 3] [%]","inhibition in vivo at 30 mg/kg [1, 4] [%]",KSchild (nM) potency [2] [nM],"KSchild (nM) potency [2, 5] [nM]",EC50 [2] [nM]
"COc1cc(N2C(=O)N(C)C(C)(c3ccc(O)cc3)C2=O)ccc1C#N (stereo not drawn) [Example 9, 4-[3,4-dimethyl-2,5-dioxo-4-(4-hydroxyphenyl)imidazolidin-1-yl]-2-methoxybenzonitrile]",50 to 140,5 to 70,2.1,–,–
"CN1C(=O)N(c2ccc(C#N)c(C(F)(F)F)c2)C(=O)C1(CO)c1ccc(O)cc1 (stereo not drawn) [Example 176, 4-[2,5-dioxo-4-hydroxymethyl-4-(4-hydroxyphenyl)-3-methyl-imidazolidin-1-yl]-2-trifluoromethylbenzonitrile]",50 to 140,5 to 70,1.34,–,–
"CN1C(=O)N(c2ccc(C#N)c(C(F)(F)F)c2)C(=O)C1(CF)c1ccc(O)cc1 (stereo not drawn) [Example 177, 4-[2,5-dioxo-4-fluoromethyl-4-(4-hydroxyphenyl)-3-methylimidazolidin-1-yl]-2-trifluoromethylbenzonitrile]",50 to 140,5 to 70,0.72,–,–
"COCN1C(=O)N(c2ccc(C#N)c(C(F)(F)F)c2)C(=O)C1(C)c1ccc(O)cc1 (stereo not drawn) [Example 222, 4-[4-(4-hydroxyphenyl)-3-methoxymethyl-4-methyl-2,5-dioxoimidazolidin-1-yl]-2-trifluoromethylbenzonitrile]",50 to 140,5 to 70,–,–,–
"Cc1cc([N+](=O)[O-])ccc1N1C(=O)N(C)C(C)(c2ccc(O)cc2)C1=O (stereo not drawn) [Example 26, 3,4-dimethyl-4-(4-hydroxyphenyl)-1-(2-methyl-4-nitro-phenyl)imidazolidine-2,5-dione]",–,–,–,20,–
CCOC(=O)CCN1C(=O)N(c2ccc(F)c(C(F)(F)F)c2)C(=O)C1c1ccc(O)cc1 (stereo not drawn) [Example 78],–,–,–,77.46,94.9
"CCCN1C(=O)N(c2ccc(F)c(Cl)c2)C(=O)C1c1ccc(O)cc1 (stereo not drawn) [Example 11, 1-(3-chloro-4-fluorophenyl)-4-(4-hydroxyphenyl)-3-propylimidazolidine-2,5-dione]",–,–,–,80,80
O=C1C(c2ccc(O)cc2)N(CCCCO)C(=O)N1c1ccc([N+](=O)[O-])c(C(F)(F)F)c1 (stereo not drawn) [Example 131],–,–,600,–,–
C#CCN1C(=O)N(c2ccc(F)c(F)c2)C(=O)C1c1ccc(O)cc1 (stereo not drawn) [Example 67],–,–,–,48.99,49
C#CCN1C(=O)N(c2ccc(Cl)c(Cl)c2)C(=O)C1c1ccc(O)cc1 (stereo not drawn) [Example 66],–,–,–,21.21,24.5
CSCN1C(=O)N(c2ccc(C#N)c(C(F)(F)F)c2)C(=O)C1(C)c1ccc(O)cc1 (stereo not drawn) [Example 222.2],–,–,15,–,–
CCOC(=O)CCN1C(=O)N(c2ccc(F)c(F)c2)C(=O)C1c1ccc(O)cc1 (stereo not drawn) [Example 76],–,–,–,200,200
"CCC1(c2ccc(O)cc2)C(=O)N(c2ccc(C#N)c(C(F)(F)F)c2)C(=O)N1C (stereo not drawn) [Example 183, 4-[2,5-dioxo-4-ethyl-4-(4-hydroxyphenyl)-3-methylimidazolidin-1-yl]-2-trifluoromethylbenzonitrile]",–,–,–,2,–
CCCN1C(=O)N(c2cccc(C(F)(F)F)c2)C(=O)C1c1ccc(O)cc1 (stereo not drawn) [Example 59],–,–,–,69.28,69.3
"CCc1cc(C#N)ccc1N1C(=O)N(C)C(C)(c2ccc(O)cc2)C1=O (stereo not drawn) [Example 37, 4-[3,4-dimethyl-2,5-dioxo-4-(4-hydroxyphenyl)imidazolidin-1-yl]-3-ethylbenzonitrile]",–,–,24.49,–,–
C#CCN1C(=O)N(c2ccc(F)c(C(F)(F)F)c2)C(=O)C1c1ccc(O)cc1 (stereo not drawn) [Example 69],–,–,–,42.43,42.4
"COc1ccc(C2(C)C(=O)N(c3ccc(C#N)c(C(F)(F)F)c3)C(=O)N2C)c(C)c1 (stereo not drawn) [Example 163, 4-[3,4-dimethyl-2,5-dioxo-4-(4-methoxy-2-methylphenyl)imidazolidin-1-yl]-2-trifluoromethylbenzonitrile]",–,–,80,–,–
"C=CCN1C(=O)N(c2ccc([N+](=O)[O-])c(C(F)(F)F)c2)C(=O)C1c1ccc(O)cc1 (stereo not drawn) [Example 13, 1-(4-nitro-3-trifluoromethylphenyl)-4-(4-hydroxyphenyl)-3-(2-propenyl)imidazolidine-2,5-dione]",–,–,122.47,–,–
"C=CCN1C(=O)N(c2ccc(Cl)c(Cl)c2)C(=O)C1(C)c1ccc(O)cc1 (stereo not drawn) [Example 20, 1-(3,4-dichlorophenyl)-4-(4-hydroxyphenyl)-4-methyl-3-(2-propenyl)imidazolidine-2,5-dione]",–,–,–,3,4
O=C1C(c2ccc(O)cc2)N(CCO)C(=O)N1c1ccc(F)c(F)c1 (stereo not drawn) [Example 140],–,–,–,489.9,490
O=C1C(c2ccc(O)cc2)N(CCCCO)C(=O)N1c1ccc(Cl)c(C(F)(F)F)c1 (stereo not drawn) [Example 134],–,–,–,122.47,122
"CCC(=O)CN1C(=O)N(c2ccc(C#N)c(C(F)(F)F)c2)C(=O)C1(C)c1ccc(O)cc1 (stereo not drawn) [Example 233, 4-[2,5-dioxo-4-(4-hydroxyphenyl)-4-methyl-3-(2-oxobutyl)imidazolidin-1-yl]-2-trifluoromethylbenzonitrile]",–,–,2.45,–,–
